Measured values as given in patent KR20240040049A, “신규 화합물 및 이를 포함하는 염증성 질환과 암에 대한 진단 및 치료에 사용되는 mri 조영제” (주식회사 테라노큐어, priority 2022, dated 2024).
Converted amounts (≈) assume the structure as drawn. “Also recorded” adds a separate entry of the source.

Assays:
water solubility at 25℃ = type: physicochemical; settings: for solubility: water
[1] = test system: LPS-induced inflamed tissue (LPS로 유발된 염증 조직); test: H&E staining of LPS-induced inflamed tissue; type: in vivo
NLRP3 = test: acute hepatitis animal model (LPS and D-galactosamine): NLRP3; type: in vivo; settings: Gd-galangin i.v. 0.1 mmol/kg, galangin oral
PARP = test: acute hepatitis animal model (LPS and D-galactosamine): PARP; type: in vivo; settings: Gd-galangin i.v. 0.1 mmol/kg, galangin oral
[2] = r1 relaxivity of gadolinium complexes; type: physicochemical; settings: in words; comparison among compounds

Row | SMILES | solubility in water (water solubility at 25℃) [µM] | solubility in water (words) (water solubility at 25℃) | solubility (water solubility at 25℃) [µg/mL] | intercellular spacing / closeness to normal tissue ([1]; Gd-galangin i.v. versus galangin oral) | histological state compared with LPS alone ([1]; Gd-galangin i.v., galangin oral) | effect on NLRP3 (NLRP3) | effect on PARP (PARP) | r1 relaxivity [2]
1 | O=c1c(O)c(-c2ccccc2)oc2cc(O)cc(O)c12 [galangin, 3,5,7-트리히드록시플라본] | 2117 (≈ 572 µg/mL) | 거의 물에 녹지 않는 불용성 물질; also recorded: Insoluble | 572 (≈ 2120 µM) | 전반적으로 더 벌어져 | 더 나은 상태 | 아무런 효과를 보이지 않았으며 | 아무런 효과를 보이지 않았으며 | –
2 | O=C([O-])CN1CCN(CC(=O)[O-])CCN(CC(=O)O)CCN(CC(=O)[O-])CC1.[Gd+3] [Gd-DOTA] | – | – | – | – | – | – | – | 유사한 값
3 | O=c1cc(-c2ccccc2)oc2cc(O)ccc12 [7-hydroxyflavone, 7-Hydroxyflavone] | 356 (≈ 84.8 µg/mL) | 거의 물에 녹지 않는 불용성 물질; also recorded: Insoluble | 85 (≈ 357 µM) | – | – | – | – | –
4 | O=c1cc(-c2ccccc2)oc2cc(O)cc(O)c12 [chrysin] | 330 (≈ 83.9 µg/mL) | 거의 물에 녹지 않는 불용성 물질; also recorded: Insoluble | 84 (≈ 330 µM) | – | – | – | – | –
5 | O=C([O-])CN1CCN(CC(=O)[O-])CCN(C(CO)C(O)CO)CCN(CC(=O)[O-])CC1.[Gd+3] (stereo not drawn) [Gd-BT-DO3A] | – | – | – | – | – | – | – | 유사한 값
